Laboratory results from patent US4598095A (priority 1982, dated 1986).
≈ marks a conversion by molar mass, not a printed value. Entries after “also recorded” stand apart in the source; their conditions may differ. Structures can show the parent of a compound that is named as a salt.

Key:
[1] = system: influenza virus, Adachi strain of A2-type; assay: microbe, parasite or virus in culture; type: cell-based; conditions: for virucidal index: 50% toxicity concentration / 50% virucidal concentration; for EC50: 2 h, read-out: 50% Virucidal Concentration
[2] = system: influenza virus, Adachi strain of A2-type; assay: microbe, parasite or virus in culture; type: cell-based; conditions: for virus proliferation-inhibiting index: 50% toxicity concentration / 50% virus proliferation-inhibiting concentration, 2880 min; for IC50: 48 h, read-out: 50% Virus Proliferation-Inhibiting Concentration
in vitro = conditions: chicken, chorioallantoic membrane
[3] = system: rice blast fungus (Pyricularia oryzae); assay: whole plant or invertebrate; type: in vivo; conditions: 168 h, read-out: Protective Value
[4] = acute toxicity (LD50) by intraperitoneal administration to mice; conditions: mouse, in vivo, ip
Excerpt: In evaluating acute toxicity (LD50 value) of the compounds of this invention, compound number 4 and compound number 25 of Table 1, respectively, were selected and examined for their acute toxicities by intraperitoneal administration to mice.

[5] = system: rice blast fungus (Pyricularia oryzae); type: in vivo; conditions: low dosage; for Protective Value: 100 ppm; for controlling effect against rice blast: Table 4
Pyricularia oryzae = conditions: Bokin Bobai, Vol. 9, No. 12, pages 551 to 561 (1981); cited from earlier work
plant pathogenic fungi = conditions: foregoing literature; cited from earlier work

| Structure (SMILES) | virus proliferation-inhibiting index [2] | IC50 [2] [µg/mL] | CC50 at 48 h (in vitro) [µg/mL] | pest or weed control at 400 ppm [3] [%] | further results |
| --- | --- | --- | --- | --- | --- |
| NC12CC3CC(CC(C3)C1)C2 [Am, Adamantaneamine Hydrochloride, reference compound] | 30.4 | 32.9 | 1000 | – | virucidal index [1]: 1.5; EC50 [1]: 649 µg/mL |
| CSC(=N)NN=Cc1ccccc1 [Compound 1] | – | – | – | 90 | – |
| N=C(NN=Cc1ccccc1)SCc1ccccc1 [Compound 2, Benzaldehyde-S-benzylisothiosemicarbazone Hydrochloride] | – | – | – | 85 | – |
| CSC(=N)NN=Cc1ccccc1Cl [Compound 3] | – | – | – | 96 | – |
| CSC(=N)NN=Cc1cccc(Cl)c1 [Compound 4] | > 54.0 | 18.5 (≈ 81.2 µM) | > 1000 | 100 | virucidal index [1]: 5.7; EC50 [1]: 175 µg/mL (≈ 768 µM); LD50 [4]: 200 mg/kg |
| CN=C(NN=Cc1cccc(Cl)c1)SC [Compound 5, 3'-Chlorobenzaldehyde-S-methyl-4-N-methylisothiosemicarbazone Hydrochloride] | – | – | – | 93 | – |
| CSC(=N)NN=Cc1ccc(Cl)cc1 [Compound 6, 4'-Chlorobenzaldehyde-S-methylisothiosemicarbazone Hydrochloride] | – | – | – | 100 | – |
| CN=C(NN=Cc1ccc(Cl)cc1)SC [Compound 7] | – | – | – | 75 | – |
| CSC(=N)NN=Cc1ccc(Cl)cc1Cl [Compound 8] | 35.7 | 19.8 (≈ 75.5 µM) | 706 (≈ 2690 µM) | 97 | virucidal index [1]: 15.2; EC50 [1]: 46.4 µg/mL (≈ 177 µM) |
| CCCCSC(=N)NN=Cc1ccc(Cl)cc1Cl [Compound 9, 2',4'-Dichlorobenzaldehyde-S-butylisothiosemicarbazone Hydrochloride] | 5.5 | 115 | 632 | 100 | virucidal index [1]: 19.9; EC50 [1]: 31.6 µg/mL |
| CN=C(NN=Cc1ccc(Cl)c(Cl)c1)SC [Compound 10] | – | – | – | 88 | Protective Value [5]: 67%; controlling effect against rice blast [5]: low protective values; MIC Value in Literature (Pyricularia oryzae): 12.5 µg/mL (≈ 45.3 µM) |
| CSC(=N)NN=Cc1ccc(Cl)c(Cl)c1 [Compound 11, 3',4'-Dichlorobenzaldehyde-S-methylisothiosemicarbazone Hydrochloride] | 33.2 | 21.3 | 707 | 98 | virucidal index [1]: 15.2; EC50 [1]: 46.4 µg/mL |
| CSC(=N)NN=Cc1c(Cl)cccc1Cl [Compound 12] | – | – | – | 100 | – |
| CSC(=N)NN=Cc1cc(Cl)cc(Cl)c1 [Compound 13] | 14.0 | 50 (≈ 191 µM) | 700 (≈ 2670 µM) | 100 | – |
| CSC(=N)NN=Cc1cc(Cl)cc(Cl)c1O [Compound 14] | > 66.7 | 15 (≈ 53.9 µM) | > 1000 | 98 | – |
| CCCCSC(=N)NN=Cc1ccc(F)cc1 [Compound 15] | – | – | – | 93 | – |
| CSC(=N)NN=Cc1cccc(Br)c1 [Compound 16] | – | – | – | 100 | – |
| CSC(=N)NN=Cc1ccc(C)cc1 [Compound 17] | – | – | – | 100 | – |
| CCOc1ccc(C=NNC(=N)SC)cc1 [Compound 18] | – | – | – | 100 | effect against plant pathogenic fungi in vitro (plant pathogenic fungi): never been observed to have effects of inhibiting proliferation of any of the pathogenic fungi; Protective Value [5]: 99%; controlling effect against rice blast [5]: very excellent controlling effects |
| CCCCSC(=N)NN=Cc1ccc(OCC)cc1 [Compound 19] | > 25.2 | 39.7 (≈ 142 µM) | > 1000 | 100 | virucidal index [1]: 3.2; EC50 [1]: 316 µg/mL (≈ 1130 µM); effect against plant pathogenic fungi in vitro (plant pathogenic fungi): never been observed to have effects of inhibiting proliferation of any of the pathogenic fungi; Protective Value [5]: 93%; controlling effect against rice blast [5]: very excellent controlling effects |
| CCCCOc1ccc(C=NNC(=N)SC)cc1 [Compound 20] | – | – | – | 99 | effect against plant pathogenic fungi in vitro (plant pathogenic fungi): never been observed to have effects of inhibiting proliferation of any of the pathogenic fungi; Protective Value [5]: 100%; controlling effect against rice blast [5]: very excellent controlling effects |
| CSC(=N)NN=C(C)c1ccccc1 [Compound 21] | 12.6 | 12.5 (≈ 60.3 µM) | 158 (≈ 760 µM) | 100 | – |
| CC(=NNC(=N)SCc1ccccc1)c1ccccc1 [Compound 22] | – | – | – | 90 | – |
| CCCC(=NNC(=N)SC)c1ccccc1 [Compound 23] | – | – | – | 93 | – |

| Structure (SMILES) | virus proliferation-inhibiting index [2] | IC50 [2] [µg/mL] | CC50 at 48 h (in vitro) [µg/mL] | pest or weed control at 400 ppm [3] [%] | further results |
| --- | --- | --- | --- | --- | --- |
| CSC(=N)NN=C(C)c1cccc(Cl)c1 [Compound 24] | 28.3 | 25 (≈ 103 µM) | 708 (≈ 2930 µM) | 89 | virucidal index [1]: 3.3; EC50 [1]: 215 µg/mL (≈ 889 µM) |
| CSC(=N)NN=C(C)c1ccc(Cl)cc1 [Compound 25] | 24.6 | 14.4 (≈ 59.6 µM) | 354 (≈ 1470 µM) | 100 | virucidal index [1]: 1.7; EC50 [1]: 215 µg/mL (≈ 889 µM); LD50 [4]: 150 mg/kg |
| CCC(=NNC(=N)SC)c1ccc(Cl)cc1 [Compound 26] | – | – | – | 100 | – |
| CCCC(=NNC(=N)SC)c1ccc(Cl)cc1 [Compound 27] | – | – | – | 100 | – |
| CCCC(=NNC(=NC)SC)c1ccc(Cl)cc1 [Compound 28] | 12.6 | 63 (≈ 222 µM) | 794 (≈ 2800 µM) | 94 | – |
| CSC(=N)NN=C(C)c1ccc(Cl)cc1Cl [Compound 29] | 7.7 | 23.2 (≈ 84 µM) | 180 (≈ 652 µM) | 90 | virucidal index [1]: 1.8; EC50 [1]: 100 µg/mL (≈ 362 µM) |
| CSC(=N)NN=C(C)c1ccc(Cl)c(Cl)c1 [Compound 30] | – | – | – | 88 | Protective Value [5]: 66%; controlling effect against rice blast [5]: low protective values; MIC Value in Literature (Pyricularia oryzae): 12.5 µg/mL (≈ 45.3 µM) |
| CSC(=N)NN=C(C)c1ccc(Cl)c(Cl)c1Cl [Compound 31] | 16.6 | 21.3 (≈ 68.6 µM) | 354 (≈ 1140 µM) | 89 | – |
| CCCCSC(=N)NN=C(C)c1ccc(Cl)c(Cl)c1Cl [Compound 32] | – | – | – | 96 | – |
| CSC(=N)NN=C(C)c1ccc(C)cc1 [Compound 33] | 20.0 | 50 (≈ 226 µM) | 1000 (≈ 4520 µM) | 97 | – |
| CSC(=N)NN=C(C)c1ccc(O)cc1 [Compound 34] | – | – | – | 93 | – |
| COc1ccc(C(C)=NNC(=N)SC)cc1 [Compound 35] | 7.0 | 14.2 (≈ 59.8 µM) | 99.4 (≈ 419 µM) | 100 | – |
| CCCCSC(=N)NN=C(C)c1ccc(OC)cc1 [Compound 36] | – | – | – | 95 | – |
| CCOc1ccc(C(C)=NNC(=N)SC)cc1 [Compound 37] | 7.1 | 12.5 (≈ 49.7 µM) | 88.8 (≈ 353 µM) | 89 | – |
| CCCCCOc1ccc(C(C)=NNC(=N)SC)cc1 [Compound 38] | > 8.0 | 126 (≈ 429 µM) | > 1000 | 100 | effect against plant pathogenic fungi in vitro (plant pathogenic fungi): inactive against all of the plant pathogenic fungi |
| CCCCCOc1ccc(C(C)=NNC(=N)SCCCC)cc1 [Compound 39] | – | – | – | 100 | – |
| CCCCCCCCOc1ccc(C(C)=NNC(=N)SC)cc1 [Compound 40] | – | – | – | 85 | – |
| CCCCCCCCCCOc1ccc(C(C)=NNC(=N)SC)cc1 [Compound 41] | < 5.0 | > 200 | 1000 (≈ 2750 µM) | 94 | virucidal index [1]: 6.9; EC50 [1]: 145 µg/mL (≈ 399 µM) |
| CSC(=N)NN=C(C)C=Cc1ccc(Cl)cc1 [Compound 42] | 7.1 | 100 (≈ 373 µM) | 710 (≈ 2650 µM) | 88 | virucidal index [1]: 4.2; EC50 [1]: 170 µg/mL (≈ 635 µM) |
| CCOc1ccc(C=CC(C)=NNC(=N)SC)cc1 [Compound 43] | 7.1 | 141 (≈ 508 µM) | > 1000 | 100 | virucidal index [1]: 3.2; EC50 [1]: 316 µg/mL (≈ 1140 µM); effect against plant pathogenic fungi in vitro (plant pathogenic fungi): never been observed to have effects of inhibiting proliferation of any of the pathogenic fungi; also recorded: inactive against all of the plant pathogenic fungi; Protective Value [5]: 97%; controlling effect against rice blast [5]: very excellent controlling effects |
| CCCCOc1ccc(C=CC(C)=NNC(=N)SC)cc1 [Compound 44] | – | – | – | 100 | – |
| CCCCCCOc1ccc(C=CC(C)=NNC(=N)SC)cc1 [Compound 45] | – | – | – | 96 | – |
| CCCCCCCCCCCCOc1ccc(C=CC(C)=NNC(=N)SC)cc1 [Compound 46] | > 11.7 | 85.2 (≈ 204 µM) | > 1000 | 77 | virucidal index [1]: > 31.6; EC50 [1]: 31.6 µg/mL (≈ 75.7 µM) |
| CCCCCCCCOc1ccc(C=CC(C)=NNC(=N)SC)cc1OC [Compound 47] | – | – | – | 96 | – |
